Usually IC50 stands for the concentration needed to halve the response being measured. Lower therefore signals greater potency.

The target in one assay is human TPH1 (Homo sapiens (Human), UniProt P17752). Description: Biochemical in vitro assay using fluorescence readout (TPH1 inhibition). The conditions noted are these: full length human TPH1, 40 μM L-tryptophan, 15° C., 60 minutes, fluorescence at 540 nm; mean if determined several times.
Sequence of human TPH1 (P17752 whole entry): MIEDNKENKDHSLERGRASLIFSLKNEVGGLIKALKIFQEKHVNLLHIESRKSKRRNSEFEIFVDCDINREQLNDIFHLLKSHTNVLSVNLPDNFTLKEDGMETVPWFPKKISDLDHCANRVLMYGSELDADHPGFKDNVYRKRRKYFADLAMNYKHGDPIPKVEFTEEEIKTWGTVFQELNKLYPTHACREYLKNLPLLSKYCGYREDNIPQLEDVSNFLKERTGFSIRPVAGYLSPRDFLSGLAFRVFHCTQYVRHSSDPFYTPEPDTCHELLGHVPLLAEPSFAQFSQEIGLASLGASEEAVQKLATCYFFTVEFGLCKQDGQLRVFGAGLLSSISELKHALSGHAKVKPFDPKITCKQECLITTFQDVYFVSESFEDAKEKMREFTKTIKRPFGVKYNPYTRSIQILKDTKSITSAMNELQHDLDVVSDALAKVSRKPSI
Take `CNC(=O)c1ccc(OCC(=O)N2CCc3nc4sc(C)nn4c3C2c2cc(C(=O)N(C)C)cs2)c(Cl)n1` (centres unmarked) [Example 1.9.6, 6-Chloro-5-(2-(5-(4-(dimethylcarbamoyl)thiophen-2-yl)-2-methyl-7,8-dihydro-[1,3,4]-thiadiazolo[2′,3′:2,3]imidazo[4,5-c]pyridin-6(5H)-yl)-2-oxoethoxy)-N-methyl-picolinamide]: it took 99 nM to reach half-maximal inhibition (IC50). In other words, the double-digit nanomolar range.
For `Cc1nn2c3c(nc2s1)CCN(C(=O)COc1ccc(C2CC2)cc1Cl)C3c1ccc(Cl)cc1F` (centres unmarked) [Example 1.4.34, 1-(5-(4-Chloro-2-fluorophenyl)-2-methyl-7,8-dihydro-[1,3,4]thiadiazolo[2′,3′:2,3]imidazo[4,5-c]pyridin-6(5H)-yl)-2-(2-chloro-4-cyclopropylphenoxy)-ethanone], the IC50 is 4 nM.

Still in this assay, the particulars now being: human TPH1, fluorescence readout.
Compound `CCc1nc(C)ccc1OCC(=O)N1CCc2nc3sccn3c2C1c1c(C)nn(C)c1C` (centres unmarked) [Example 6.15.1, ((2-ethyl-6-methylpyridin-3-yl)oxy)-1-(5-(1,3,5-trimethyl-1H-pyrazol-4-yl)-7,8-dihydrothiazolo-[2′,3′:2,3]imidazo[4,5-c]pyridin-6(5H)-yl)ethanone] returned an IC50 of 149 nM.
In turn, `Cc1nn2c3c(nc2s1)CCN(C(=O)COc1ccc(C2(N(C)C)CC2)nc1Cl)C3c1ccc(Cl)cc1F` (centres unmarked) [Example 1.4.44, 1-(5-(4-chloro-2-fluorophenyl)-2-methyl-7,8-dihydro-[1,3,4]thiadiazolo[2′,3′:2,3]imidazo[4,5-c]pyridin-6(5H)-yl)-2-((2-chloro-6-(1-(dimethylamino)cyclopropyl)pyridin-3-yl)oxy)ethanone] showed an IC50 of 51 nM.
Regarding `CCc1cc(F)ccc1OCC(=O)N1CCc2nc3sccn3c2C1c1ccc(C)cc1F` (centres unmarked) [Example 6.10.4, 2-(2-ethyl-4-fluorophenoxy)-1-(5-(2-fluoro-4-methyl-phenyl)-7,8-dihydrothiazolo[2′,3′:2,3]imidazo[4,5-c]-pyridin-6(5H)-yl)ethanone], 6 nM corresponded to half-maximal inhibition (IC50).
The compound `Cc1nn2c3c(nc2s1)CCN(C(=O)COc1ccc(NS(C)(=O)=O)nc1Cl)C3c1cncs1` (centres unmarked) [Example 1.39.1, N-(6-chloro-5-(2-(2-methyl-5-(thiazol-5-yl)-7,8-dihydro-[1,3,4]thiadiazolo[2′,3′:2,3]imidazo[4,5-c]pyridin-6(5H)-yl)-2-oxoethoxy)pyridin-2-yl)methanesulfonamide] showed an IC50 of 101 nM.
The same measure, in the same setting: the same measure for `Cc1nn2c3c(nc2s1)CCN(C(=O)COc1ccc(NS(C)(=O)=O)cc1Cl)C3c1ncc(Cl)cc1F` (centres unmarked) [Example 1.33.7, N-(3-chloro-4-(2-(5-(5-chloro-3-fluoropyridin-2-yl)-2-methyl-7,8-dihydro-[1,3,4]thiadiazolo[2′,3′:2,3]imidazo[4,5-c]pyridin-6(5H)-yl)-2-oxoethoxy)phenyl)methanesulfonamide]: 13 nM.
As for `CCc1nc(N2CCCS2(=O)=O)ccc1OCC(=O)N1CCc2nc3sc(C(F)(F)F)nn3c2[C@@H]1c1ccc(Cl)cc1F` [Example 5.1.4], the IC50 worked out at 7 nM.
In turn, `CCc1nn2c3c(nc2s1)CCN(C(=O)COc1ccc(-c2ncco2)nc1Cl)C3c1ccc(Cl)cc1F` (centres unmarked) [Example 3.1.3, 1-(5-(4-chloro-2-fluorophenyl)-2-ethyl-7,8-dihydro-[1,3,4]thiadiazolo[2′,3′:2,3]imidazo[4,5-c]pyridin-6(5H)-yl)-2-((2-chloro-6-(oxazol-2-yl)pyridin-3-yl)oxy)ethanone] had an IC50 of 12 nM.
Take `Cc1nn2c3c(nc2s1)CCN(C(=O)COc1ccc(N2CCOCC2)nc1Cl)C3c1csc(C2OCCO2)c1` (centres unmarked) [Example 1.85.1, 1-(5-(5-(1,3-dioxolan-2-yl)thiophen-3-yl)-2-methyl-7,8-dihydro-[1,3,4]thiadiazolo[2′,3′:2,3]imidazo[4,5-c]pyridin-6(5H)-yl)-2-((2-chloro-6-morpholinopyridin-3-yl)oxy)ethan-1-one]: the IC50 worked out at 13 nM. This IC50 and that of the compound before are within 1.5-fold of each other.
`Cc1ccc(C2c3c(nc4sc(C)nn34)CCN2C(=O)COc2ccc(C(=O)N(C)C3CC3)nc2Cl)c(F)c1` (centres unmarked) [Example 1.53.3, 6-chloro-N-cyclopropyl-5-(2-(5-(2-fluoro-4-methyl-phenyl)-2-methyl-7,8-dihydro-[1,3,4]thiadiazolo-[2′,3′:2,3]imidazo[4,5-c]pyridin-6(5H)-yl)-2-oxoethoxy)-N-methylpicolinamide]: the IC50 was 15 nM.
Compound `COC(=O)c1ccc(C2c3c(nc4sc(C)nn34)CCN2C(=O)COc2ccc(C(=O)NC3CC3)nc2Cl)c(F)c1` (centres unmarked) [Example 1.79.2, methyl-4-(6-(2-((2-chloro-6-(cyclopropylcarbamoyl)pyridin-3-yl)oxy)acetyl)-2-methyl-5,6,7,8-tetrahydro-[1,3,4]thiadiazolo[2′,3′:2,3]imidazo[4,5-c]pyridin-5-yl)-3-fluorobenzoate] gave a 50% inhibitory concentration (IC50) of 21 nM. The IC50 values of the last two compounds are within 1.5-fold of each other.
On to `COc1ccc(C2c3c(nc4sc(C)nn34)CCN2C(=O)COc2ccc3ccccc3c2)cc1OC` (centres unmarked) [Example 1.1.1, 1-(5-(3,4-dimethoxyphenyl)-2-methyl-7,8-dihydro-[1,3,4]thiadiazolo[2′,3′:2,3]imidazo[4,5-c]pyridin-6(5H)-yl)-2-(naphthalen-2-yloxy)ethanone], for which the midpoint of inhibition, the IC50, lay at 10 nM.
Consider `Cc1nn2c3c(nc2s1)CCN(C(=O)COc1ccc(C(=O)N(C)C)nc1Cl)C3c1cc(F)ccc1F` (centres unmarked) [Example 1.57.1, 6-chloro-5-(2-(5-(2,5-difluorophenyl)-2-methyl-7,8-dihydro-[1,3,4]thiadiazolo[2′,3′:2,3]imidazo[4,5-c]pyridine-6(5H)-yl)-2-oxoethoxy)-N,N-dimethylpicolinamide], for which the IC50 was found to be 30 nM.
In turn, `Cc1cnc(C2c3c(nc4sc(C)nn34)CCN2C(=O)COc2ccc(C(F)(F)F)nc2Cl)c(F)c1` (centres unmarked) [Example 1.31.5, 2-((2-chloro-6-(trifluoromethyl)pyridin-3-yl)oxy)-1-(5-(3-fluoro-5-methylpyridin-2-yl)-2-methyl-7,8-dihydro-[1,3,4]thiadiazolo[2′,3′:2,3]imidazo[4,5-c]pyridin-6(5H)-yl)ethanone] gave an IC50 of 21 nM. The IC50 values of the last two compounds are within 1.5-fold of each other.
`CS(=O)(=O)Nc1ccc(OCC(=O)N2CCc3nc4sc(C(F)F)nn4c3[C@@H]2c2ccc(Cl)cc2F)c(Cl)n1` [Example 8.1.4]: 12 nM corresponded to half-maximal inhibition (IC50).
With `CCc1nc(C(F)F)ccc1OCC(=O)N1CCc2nc3sc(C)nn3c2C1c1ccc(Cl)cc1F` (centres unmarked) [Example 1.4.6, 1-(5-(4-chloro-2-fluorophenyl)-2-methyl-7,8-dihydro-[1,3,4]thiadiazolo[2′,3′:2,3]imidazo[4,5-c]pyridin-6(5H)-yl)-2-((6-(difluoromethyl)-2-ethylpyridin-3-yl)oxy)ethanone], the IC50 was determined as 11 nM.
Take `Cc1nn2c3c(nc2s1)CCN(C(=O)COc1ccc(N2CCOCC2)nc1Cl)C3c1ncccc1F` (centres unmarked) [Example 1.35.1, 2-((2-chloro-6-morpholinopyridin-3-yl)oxy)-1-(5-(3-fluoropyridin-2-yl)-2-methyl-7,8-dihydro-[1,3,4]thiadiazolo [2′,3′:2,3]imidazo[4,5-c]pyridin-6(5H)-yl)ethanone]: the midpoint of inhibition, the IC50, lay at 6 nM.
On to `Cc1cc(Cl)ccc1OCC(=O)N1CCc2nc3sccn3c2C1c1c(C)nn(C)c1C` (centres unmarked) [Example 6.15.3, 2-(4-chloro-2-methylphenoxy)-1-(5-(1,3,5-trimethyl-1H-pyrazol-4-yl)-7,8-dihydrothiazolo[2′,3′:2,3]imidazo[4,5-c]pyridin-6(5H)-yl)ethanone], for which the IC50 came to 20 nM.
In the case of `Cc1nn2c3c(nc2s1)CCN(C(=O)COc1cnc(N(C)C)nc1Cl)C3c1sccc1F` (centres unmarked) [Example 1.23.11, 2-((4-chloro-2-(dimethylamino)pyrimidin-5-yl)oxy)-1-(5-(3-fluorothiophen-2-yl)-2-methyl-7,8-dihydro-[1,3,4]thiadiazolo[2′,3′:2,3]imidazo[4,5-c]pyridin-6(5H)-yl)ethanone], the IC50 was 6 nM.
`COc1ccc(C2c3c(nc4sc(C)nn34)CCN2C(=O)COc2ccc(C(=O)NC3CC3)nc2Cl)c(F)c1` (centres unmarked) [Example 1.3.3, 6-chloro-N-cyclopropyl-5-(2-(5-(2-fluoro-4-methoxyphenyl)-2-methyl-7,8-dihydro-[1,3,4]thiadiazolo[2′,3′:2,3]imidazo[4,5-c]pyridin-6(5H)-yl)-2-oxoethoxy)picolinamide]: half-maximal inhibition (IC50) required 10 nM.
Take `COc1ccc(C2c3c(nc4sccn34)CCN2C(=O)COc2ccc3ccncc3c2)c(F)c1` (centres unmarked) [Example 6.3.3, 1-(5-(2-fluoro-4-methoxyphenyl)-7,8-dihydrothiazolo[2′,3′:2,3]imidazo[4,5-c]pyridin-6(5H)-yl)-2-(isoquinolin-7-yloxy)ethanone]: the IC50 is 4 nM.
In turn, `Cc1nn2c3c(nc2s1)CCN(C(=O)COc1ccc(C(=O)N(C)C)nc1Cl)C3c1cnc(C(=O)N(C)C)s1` (centres unmarked) [Example 1.34.2, 5-(6-(2-((2-chloro-6-(dimethylcarbamoyl)pyridin-3-yl)oxy)acetyl)-2-methyl-5,6,7,8-tetrahydro-[1,3,4]thiadiazolo [2′,3′:2,3]imidazo[4,5-c]pyridin-5-yl)-N,N-dimethylthiazole-2-carboxamide] displayed an IC50 of 9 nM.
Turning to `Cc1ccc(OCC(=O)N2CCc3nc4sc(C)nn4c3C2c2ccc(C3CC3)cc2F)c(C)n1` (centres unmarked) [Example 1.6.3, 1-(5-(4-cyclopropyl-2-fluorophenyl)-2-methyl-7,8-dihydro-[1,3,4]thiadiazolo[2′,3′:2,3]imidazo[4,5-c]pyridin-6(5H)-yl)-2-((2,6-dimethylpyridin-3-yl)oxy)ethanone], the IC50 was 13 nM.
The compound `COCCOc1ccc(C2c3c(nc4sc(C)nn34)CCN2C(=O)COc2ccc(NS(C)(=O)=O)nc2Cl)c(F)c1` (centres unmarked) [Example 1.83.2, N-(6-chloro-5-(2-(5-(2-fluoro-4-(2-methoxyethoxy)phenyl)-2-methyl-7,8-dihydro-[1,3,4]thiadiazolo[2′,3′:2,3]imidazo[4,5-c]pyridin-6(5H)-yl)-2-oxoethoxy)pyridin-2-yl)methanesulfonamide] had an IC50 of 18 nM.
In turn, `Cc1nn2c3c(nc2s1)CCN(C(=O)COc1ccc(N(C)C)nc1Cl)C3c1ccc(Cl)nc1F` (centres unmarked) [Example 1.16.1, 1-(5-(6-chloro-2-fluoropyridin-3-yl)-2-methyl-7,8-dihydro-[1,3,4]thiadiazolo[2′,3′:2,3]imidazo[4,5-c]pyridin-6(5H)-yl)-2-((2-chloro-6-(dimethylamino)pyridin-3-yl)oxy)ethanone] had an IC50 of 5 nM.

The values above are taken from patent US9765092B2, “Tricyclic piperidine compounds” (ACTELION PHARMACEUTICALS LTD, priority 2013, dated 2017).
